# Patent publication US10980776B2, “Synergistic pharmaceutical combination for the treatment of squamous cell carcinoma of head and neck” (Piramal Enterprises Limited, priority 2011, dated 2021)
# Legend:
# [1] = tested on: SCC-25 cells; test: CCK-8 cytotoxicity assay, determination of inhibitory concentrations in SCC-25 cells; type: cell-based; details: SCC-25 cells, 72 hr
# Experimental: (§1) Logarithmically growing cells were plated at a density of 3×10^3 cells/well and allowed to recover overnight. […] After 72 hours, cell toxicity was determined by CCK-8 (Cell Counting Kit-8) reagent (Dojindo Molecular Technologies, Japan); WST-8 (2-(2-methoxy-4-nitrophenyl)-3-(4-nitrophenyl)-5-(2, 4-disulfophenyl)]-2H-tetrazolium, monosodium salt) assay. In accordance with the manufacturer's instructions, 5 μl/well CCK-8 reagent was added and plates were incubated for 2 hours. The toxicity was determined by measuring the absorbance on Tecan Sapphire multi-fluorescence micro-plate reader (Tecan, Germany, GmbH) at a wavelength of 450 nm corrected to 650 nm and normalized to controls.
# (§2) CCK-8 allows convenient assays using Dojindo's tetrazolium salt, WST [8[(2-(2-methoxy-4-nitrophenyl)-3-(4-nitrophenyl)-5-(2,4-disulfophenyl)-2H-tetrazolium, monosodium salt], which produces a water-soluble formazan dye upon bioreduction in the presence of an electron carrier, 1-Methoxy PMS. CCK-8 solution is added directly to the cells; no pre-mixing of components is required. CCK-8 is a sensitive nonradioactive colorimetric assay for determining the number of viable cells in cell proliferation and cytotoxicity assays. WST-8 is bio-reduced by cellular dehydrogenases to an orange formazan product that is soluble in tissue culture medium. The amount of formazan produced is directly proportional to the number of living cells. The detection sensitivity of cell proliferation assays using WST-8 is higher than assays using the other tetrazolium salts such as MIT, XTT, MTS or WST-1. Optical Density was determined at measurement wavelength of 450 nm and reference wave length of 630 nm.
# (§3) The cells were seeded at a density of 3000 cells/well, in a 200 μL in tissue culture grade 96 well plate and were allowed to recover for 24 hrs in a humidified 5%±0.2 CO2 incubator at 37° C.±0.5° C. […] The final DMSO concentration was 0.5% in wells. Plates were incubated for 48 hrs in humidified 5%±0.2 CO2 incubator at 37±0.5° C. After 48 hrs the plates were removed from CO2 incubator and 5 μL of Cell counting Kit (CCK-8) per well was added. The same plate was kept at 37° C. for 3 hrs, and allowed to come to room temperature. The absorbance at a wavelength of 450 nm was read on Tecan safire reader. The percent cytotoxicity was calculated using the following formula.
# [2] = tested on: Detroit-562 cells; test: CCK-8 cytotoxicity assay, determination of inhibitory concentrations in Detroit-562 cells; type: cell-based; details: 72 hr
# Experimental: as §1, §2, §3
# [3] = tested on: FADU cells; test: CCK-8 cytotoxicity assay, determination of inhibitory concentrations in FADU cells; type: cell-based, human; details: 72 hr
# Experimental: as §1, §2, §3
compound,measurement,setting,value
"CN1CC[C@@H](c2c(O)cc(O)c3c(=O)cc(-c4ccc(C(F)(F)F)cc4Cl)oc23)[C@@H]1CO.Cl [Compound B, (+)-trans-2-(2-chloro-4-trifluoromethyl-phenyl)-5,7-dihydroxy-8-(2-hydroxymethyl-1-methyl-pyrrolidin-3-yl)-chromen-4-one hydrochloride]",IC90,[1]; Homo sapiens,41.8 µM
same,IC50,"[1]; Homo sapiens, read-out: IC50",1.1 µM
same,IC30,[1],0.2 µM
same,IC70,[1],4.8 µM
same,IC30,[2],2.7 µM
same,IC70,[2],25.2 µM
same,IC50,[2]; Homo sapiens,14.1 µM
same,IC90,[2]; Homo sapiens,44.6 µM
same,IC30,[3],2.3 µM
same,IC70,[3],9.6 µM
same,IC50,[3]; Homo sapiens,4.1 µM
same,IC90,[3]; Homo sapiens,31.4 µM
